Results published in ChEMBL document CHEMBL3507680, “University of Dundee, Gates Library screen for HepG2 cell viability”.

Test: Human HepG2 cell viability assay in 384 well format
Format: toxicity, cell-based
Parameters: dose 125 nL, time 70.5 hour; concentration not given beside the values
Conditions: HepG2 cells, read-out: Inhibition

Structure (SMILES) | cytotoxicity at 70.5 h [%]
CC(=O)N1CCc2[nH]c(=O)ccc2C1 | -6.79
CN(C)CC1CSCCCN1C(=O)c1ccc(-n2cccc2)cc1 (stereo unspecified) | -4.81
CN(C)CC1CSCCCN1C(=O)c1ccc(-c2ccccc2)cc1 (stereo unspecified) | -0.605
CN(C)c1cccc(C(=O)N2CCCSCC2CN2CCCC2)c1 (stereo unspecified) | 3.97
N#Cc1ccc(C(=O)N2CCCSCC2CN2CCCC2)cc1 (stereo unspecified) | -5.18
COc1cccc(OCC(=O)N2CCCSCC2CN2CCOCC2)c1 (stereo unspecified) | 14.1
Cc1cccnc1NC(=O)C1CSc2ncc(C)c(=O)n2C1 (stereo unspecified) | -2.04
CC(C)(C)c1cc(=O)n2c(n1)SCC(C(=O)NCc1cccs1)C2 (stereo unspecified) | 0.387
COc1cc(C(=O)NCCCc2ccccc2)on1 | -1.09
O=C(Cn1c(=O)oc2ccccc21)NCC(O)c1ccc2c(c1)CCO2 (stereo unspecified) | -2.64
Cc1noc(C)c1S(=O)(=O)NCC(O)c1ccc2c(c1)CCO2 (stereo unspecified) | 17.6
COc1nn(C)cc1C(=O)NCC1(O)CCc2ccccc2C1 (stereo unspecified) | -5.25
COCCN(Cc1ccoc1)C(=O)c1ccccc1OC | -1.89
COCCN(Cc1ccoc1)C(=O)c1ccc(Cl)s1 | -6.8
CCSc1ccccc1C(=O)N(CCOC)Cc1ccoc1 | 25
COCCN(Cc1ccoc1)S(=O)(=O)c1ccc(OC)c(Cl)c1 | -20.8
CCOC(=O)NCCC(O)c1ccoc1 (stereo unspecified) | -11.9
Cc1cc(C(O)CCNC(=O)COc2ccccc2F)c(C)o1 (stereo unspecified) | -0.424
Cc1cc(C(O)CCNS(=O)(=O)c2ccc(Cl)s2)c(C)o1 (stereo unspecified) | -15.4
COC1(CNC(=O)c2ccoc2)CCSC1 (stereo unspecified) | -11
COc1ccc(OC)c(S(=O)(=O)NCC2(OC)CCSC2)c1 (stereo unspecified) | -7.48
COC1(CNS(=O)(=O)c2ccccc2Br)CCSC1 (stereo unspecified) | -4.04
COc1ccc(C(=O)Nc2ccccc2-c2ccc(=O)n(C)n2)cc1 | 3.05

Structure (SMILES) | cytotoxicity at 70.5 h [%]
Cn1nc(-c2ccccc2NC(=O)c2cncc(Br)c2)ccc1=O | 15.4
O=C(NCC(F)(F)F)c1ccc(-n2cncn2)nn1 | 1.36
Cc1ccc(C(=O)NCCn2nc(-n3cncn3)ccc2=O)c(C)c1 | 29.8
CS(=O)(=O)C1CCN(S(=O)(=O)c2ccc(F)c(F)c2)C1 (stereo unspecified) | -5.07
CS(=O)(=O)C1CCN(S(=O)(=O)Cc2cccc(F)c2)CC1 | 0.12
CS(=O)(=O)C1CCN(S(=O)(=O)c2ccc(F)c(F)c2)CC1 | 1.4
O=C(CN1C(=O)CCC1=O)N1Cc2cncnc2C1 | -2.85
CS(=O)(=O)N1CCCC1CS(=O)(=O)c1ccccc1 (stereo unspecified) | -11.6
O=S(=O)(CC1CCCN1S(=O)(=O)C1CC1)c1ccccc1 (stereo unspecified) | -6.46
Cc1cc(CNC(=O)c2cnoc2C)c(C)o1 | -12
Cn1cnc(S(=O)(=O)NCC(O)c2ccc3c(c2)CCO3)c1 (stereo unspecified) | -16.8
Cn1cnc(S(=O)(=O)NCCC(O)c2ccc3c(c2)OCO3)c1 (stereo unspecified) | 20.5
CN(C)C(=O)Cc1ccc(NC(=O)c2cn(C)nn2)cc1 | -4.9
Cc1nsc(C(=O)NCCc2ccc(S(N)(=O)=O)cc2)n1 | -5.58
Cc1nsc(C(=O)NCCCc2ccccc2)n1 | -5.43
Cc1nsc(C(=O)NCCc2ccc(Cl)cc2)n1 | 2.81
Cc1nsc(C(=O)NCCc2ccc(F)cc2)n1 | -1.44
Cc1nsc(C(=O)NCCc2cccs2)n1 | -5.79
Cc1nc(N(C)C)nc(C)c1NC(=O)c1ccccc1F | -7.08
Cc1cc(C)c(S(=O)(=O)Nc2c(C)nc(N(C)C)nc2C)cc1C | 7.13
Cc1nc(N(C)C)nc(C)c1NS(=O)(=O)c1ccc(F)cc1F | -2.45
Cc1ccc(S(=O)(=O)Nc2c(C)nc(N3CCCC3)nc2C)cc1 | -2.23
Cc1nc(N2CCOCC2)nc(C)c1NS(=O)(=O)c1ccccc1 | -4.03

Structure (SMILES) | cytotoxicity at 70.5 h [%]
CCS(=O)(=O)NCc1nc(C)cc(N2CCCC2)n1 | 19.2
CCCS(=O)(=O)NCc1nc(C)cc(N2CCCC2)n1 | -5.66
CCS(=O)(=O)NCc1nc(C)cc(N2CCOCC2)n1 | -6.72
O=C(Cc1ccc(F)cc1)NCCNc1cc(N2CCCC2)cnn1 | 30.6
CCC(=O)N1CCN(c2cc(N(C)C)cnn2)CC1 | -10.5
CC(C)C(=O)N1CCN(c2cc(N(C)C)cnn2)CC1 | -5.3
O=C(c1ccccn1)N1CCN(c2cnnc(N3CCCC3)c2)CC1 | -10.9
CCOc1ccc(S(=O)(=O)Nc2cnc(OC)nc2OC)cc1 | 9.83
COc1ncc(NS(=O)(=O)c2ccc(F)c(F)c2)c(OC)n1 | -1.82
CC(C)(C)CC(=O)NCCn1ccc(-c2ccncc2)n1 | -15.2
CC(=O)NCCn1ccc(-c2ccccn2)n1 | -2.73
O=C(NCCn1ccc(-c2ccccn2)n1)C1CCC1 | 1.58
O=S(=O)(NCCn1ccc(-c2ccccn2)n1)C1CCCCC1 | 23.9
Cn1nc(CNC(=O)c2ccc3c(c2)OCO3)c2c1CCOC2 | 5.45
Cn1nc(CNC(=O)c2ccc3nsnc3c2)c2c1CCOC2 | -4.6
COc1cc(OC)cc(C(=O)NCc2nn(C)c3c2COCC3)c1 | 0.999
O=C(CC1CCC2(CC1)CCN(Cc1nccs1)CC2)N1CC=CC1 | -3.04
Cc1ccnc(OC[C@]23COC[C@H]2CN(C(=O)C2=CCCCC2)C3)n1 | -11.5
Cc1ccnc(OC[C@]23COC[C@H]2CN(C(=O)c2ncccn2)C3)n1 | 21.2
Cc1ccnc(OC[C@]23COC[C@H]2CN(C(=O)c2cnccn2)C3)n1 | 14.9
COCc1ncn2c1CN(C(=O)Nc1cccc(OC)c1)CC2 | 19.8
CC(=O)NCC(=O)N1CCC2(COCc3c(C)nc(N(C)C)nc32)C1 (stereo unspecified) | -6.64
Cc1nc(N(C)C)nc2c1COCC21CCN(C(=O)NCC(C)C)C1 (stereo unspecified) | -7.67

Structure (SMILES) | cytotoxicity at 70.5 h [%]
CN1C(Cn2cccn2)C[C@@H]2CN(Cc3cnn(C)c3)CC[C@@H]21 (stereo partly specified) | -11.7
CCOCc1ncn2c1CN(C(=O)Nc1ccccc1)CC2 | -15.7
CCS(=O)(=O)N1C[C@H]2CN(Cc3cccc(F)c3)C(=O)[C@H]2C1 | -3.13
CN(C)c1ncc(-c2cc(C(=O)N3CCCC3)n(CC3CC3)c2)cn1 | -11
CC(C)COCC1CN(Cc2ccoc2)Cc2ncn(C)c21 (stereo unspecified) | 14
CC(C)N(C)Cc1cnc2n1CCN(Cc1cccc(C#N)c1)C2 | -13.7
Cc1ccc(N2CC[C@H]3OCC[C@@]3(C(=O)N3CCCC3)C2)nn1 | -9.8
Cc1ccc(N2CC[C@H]3OCC[C@@]3(C(=O)NCC3CC3)C2)nn1 | -7.61
CCO[C@@H]1CCN(c2ccc(C)nn2)[C@@H]1Cc1cnn(C)c1 | -10.9
O=C(Cc1ccccn1)N1C[C@@H](Oc2cccnc2)[C@H]2OCCC[C@H]21 | 28.2
Cn1nccc1-c1ccc2nc(C3CCNCC3)nn2c1 | 10.5
Cc1ccc(CNC2CCc3[nH]c(=O)ccc3C2)cc1C (stereo unspecified) | 2.24
CNC(=O)CN1CC[C@H]2CN(C(=O)c3ccccc3F)C[C@H]2C1 | -2.12
COCCN1CCC2(CC1)CC(c1cccnc1)CO2 (stereo unspecified) | -4.14
COCCn1cc2c(n1)C(CNCc1ccsc1)OCC2 (stereo unspecified) | -14.8
COCC1CC2(CCN(C(=O)c3ccccc3C)CC2)CN1C(C)C (stereo unspecified) | 19.7
Cc1ccc(CN2CCC3(C2)C(=O)N(CC2CC2)c2ccccc23)s1 (stereo unspecified) | -8.57
CC(C)CN1C(=O)C2(CCN(Cc3cccs3)C2)c2ccccc21 (stereo unspecified) | -16.4
CC(C)CN1C(=O)C2(CCN(Cc3ccoc3)C2)c2ccccc21 (stereo unspecified) | -14.2
CC(C)N(C)Cc1cnc2n1CCN(S(=O)(=O)c1ccccc1)C2 | 15.9
COCC1CC2(CCN(C(=O)c3ccco3)CC2)CN1C(C)C (stereo unspecified) | -13
CCS(=O)(=O)N1CCO[C@H]2[C@H](Oc3ncccc3F)CC[C@@H]21 | -11.9
COCCN1C(=O)[C@]2(CC[C@@H]3CN(Cc4ccccc4F)C[C@@H]32)N=C1C | -9.72

Structure (SMILES) | cytotoxicity at 70.5 h [%]
CC1=N[C@@]2(CC[C@@H]3CN(CC4CC4)C[C@@H]32)C(=O)N1CC1CC1 | -13.6
CC1=N[C@@]2(CC[C@@H]3CN(Cc4cccc(Cl)c4)C[C@@H]32)C(=O)N1CC1CC1 | -14.9
CC(=O)N1CC(=O)N(c2ccccc2)CC12CCN(Cc1ccoc1)C2 (stereo unspecified) | -14.4
CC(C)CN1CC[C@@H]2[C@H](CC1)N(S(C)(=O)=O)CCS2(=O)=O | -11.1
CC(=O)N1CC(=O)N(c2cnn(C)c2)CC12CCN(Cc1cccs1)C2 (stereo unspecified) | -9.86
O=C(N[C@H]1CN(Cc2ccsc2)[C@@H]2CCCO[C@H]12)C1CC1 | -11.3
COCC1Cn2nnc(-c3cnn(C)c3)c2CN1Cc1ccsc1 (stereo unspecified) | -9.05
CC1CCN(C(=O)[C@H]2CC[C@@H]3[C@@H](CCN3Cc3nccs3)O2)CC1 | 25.3
Cc1nc(CN2CC[C@H]3[C@@H]2CCC(=O)N3c2cnn(C)c2)cs1 | 13.5
CC(C)CC(=O)N1CC[C@@H]2[C@H](CC1)N(Cc1cccnc1)CCS2(=O)=O | 3.17
CC(C)C(=O)N1CC[C@@H]2[C@H](CC1)N(Cc1cccnc1)CCS2(=O)=O | 2.07
O=C(CC1CCC2(CC1)CCN(Cc1cccnc1)CC2)N1CC=CC1 | -8.62
Fc1ccc(CN2CCC(F)(F)C3(CCN(c4cnccn4)C3)C2)cc1 (stereo unspecified) | -9.88
CC(C)N(C)Cc1cnc2n1CCN(C(=O)Cc1ccccn1)C2 | 13.5
Cn1cc(CN2CCC(F)(F)C3(CCN(c4ncccn4)C3)C2)cn1 (stereo unspecified) | -12.2
CC(C)N(C)Cc1cnc2n1CCN(Cc1cccc(F)c1)C2 | -4.8
CNC(=O)CN1CCOCC2(CCCN(Cc3ccsc3)C2)C1 (stereo unspecified) | -19.5
CCN1CCn2c(C)cnc2C12CCN(C(=O)N(C)C)CC2 | -9.01
CCN1CCn2c(C)cnc2C12CCN(C(=O)c1cscn1)CC2 | 4.22
